Experimental findings from patent publication US20250051321A1, “TRICYCLIC DERIVATIVE AND PREPARATION METHOD THEREFOR AND APPLICATION THEREOF” (SHANGHAI JEMINCARE PHARMACEUTICAL CO., LTD., priority 2021, published 2025) are described below.

Where two headings read alike, the source gives them in different places.

As a reminder, the IC50 is the concentration needed to halve the response being measured.

Assay [1] addresses ATX (Homo sapiens (Human), UniProt Q13822). Description: ATX enzyme inhibition assay (Amplex UltraRed/choline oxidase/HRP, 16:0 Lyso PC substrate). The class given is biochemical. As for the experimental part: All compounds were prepared as a 10 mM DMSO stock solution.
Solutions at pH 8.5 and pH 7.5 were prepared respectively with the following formulations:
All compounds, including the positive control compound, were diluted 5-fold from 10 mM to 2 mM with DMSO in the first step. The mixture was then diluted to 100 μM with 1× assay buffer.
3. Separate Detection of Compounds with 1× Assay Buffer at Two pH Values:
a) 5 μL of 10× compound diluent was added to a 384-well plate (Greiner 781209) using a motorized pipette (see the “experimental preparation” step). 5 μL of 1× assay buffer containing 5% DMSO was added to both negative and positive control wells. The plate was centrifuged at 300 rpm for 1 minute at room temperature.
b) 2× ATX ([…]) was prepared with 1× assay buffer, and 25 μL of 2× ATX was added to the plate using a motorized pipette. 25 μL of 1× assay buffer was added to the negative control wells and 25 μL of 2× ATX was added to the positive control wells. The plate was centrifuged at 300 rpm for 1 minute at room temperature.
The plate was incubated at room temperature for 10 minutes.
c) 2.5× working solution containing Amplex UltraRed reagent (125 μM), HRP (2.5 U/mL), choline oxidase (1.25 U/mL), and 16:0 Lyso PC (75 μM) was prepared with 1× assay buffer. 20 μL of 2.5× working solution was added to all reaction wells using a motorized pipette. The plate was centrifuged at 300 rpm for 1 minute at room temperature.
d) The plate was detected by SpectraMax with the following procedures: fluorescence mode; excitation at 550 nm; emission at 590 nm; kinetics; read once every 2 minutes; read continuously for 60 minutes.
The calculation formula of % inhibition (i.e., % inhibition rate) was as follows: […]
V0: X-axis is taken as 0 to 30 minutes, Y-axis is taken as fluorescence readings, and the slope corresponding to the straight line fitted by the software GraphPad Prism 8 is the initial response rate.
V0max: Average V0 of the positive control wells in the plate.
V0min: Average V0 of the negative control wells in the plate.
The IC50 of the compounds was calculated from a nonlinear regression line (dose-initial response rate) fitted by % inhibition and log value of compound concentration using the software GrahPad Prism 8.

In assay [2] the test system is plasma LPA 18:1 and LPA 18:2. Description: Human plasma ex vivo assay (LPA 18:1 / 18:2 by LC-MS/MS). The class given is biochemical. Particulars: 37° C., 2 hours. As for the experimental part:
The collected plasma was centrifuged at 4000 rpm for 15 minutes at 4° C. The supernatant was aliquoted into a 96-well plate (25 μL per well), sealed, and frozen at −80° C. for further use.
LPA 17:0 powder was dissolved in a mixed solution of water: isopropanol: formic acid (1:1:1) to a final concentration of […]. The mixture was aliquoted and frozen at −20° C.
1 volume of formic acid was added to 1000× methanol, mixed well, and stored at 4° C. a) The 96-well plate containing frozen plasma was removed from the −80° C. freezer and thawed on ice at room temperature. b) 6 μL of 50× LPA 17:0 (internal standard) and 264 μL of 0.1% FA were added to a clean well of the 96-well plate; the final concentration of LPA 17:0 (internal standard) was 50 nM. c) 6× compound was 1:3 serially diluted to a total of 8 concentrations, and 5 μL of the compound per well was added to the 96-well plate containing plasma. The maximum final concentration of the compound was 10 μM, and the final concentration of DMSO was 0.1%. The plate was centrifuged at 300 rpm for 30 seconds. The DMSO control sample reacted for 0 hours was used as the minimum value (Min), and the DMSO control sample reacted for 2 hours was used as the maximum value (Max). […]
d) The DMSO sample reacted for 0 hours was rapidly transferred to 0.1% FA solution containing the internal standard in step b) to terminate the reaction and precipitate plasma proteins. e) The 96-well plate containing plasma and compounds was rapidly incubated in a 37° C. incubator for 2 hours. After the incubation, 6 μL of 10× LPA 17:0 and 264 μL of 0.1% FA were added to each well to terminate the reaction and precipitate plasma proteins. […]
f) All the samples were mixed well with a pipette, and centrifuged at 4000 rpm for 10 minutes at 4° C. 150 μL of the supernatant was added to a 96-well U-bottom plate (Thermo 267245), sealed with silica gel, and then loaded. The contents of LPA 18:1 and LPA 18:2 in the samples were detected by LC-MS/MS system.
LPA 18:1(or 18:2) relative content=LPA 18:1(or 18:2) peak area/LPA 17:0 peak area Percentage reduction (%) in plasma LPA18:1(or 18:2)=(Max−X)/(Max−Min)*100 Max: LPA 18:1 (or 18:2) relative content of the DMSO sample reacted for 2 hours Min: LPA 18:1 (or 18:2) relative content of the DMSO sample reacted for 0 hours X: LPA 18:1 (or 18:2) relative content of the sample after compound treatment for 2 hours The IC50 of the compounds was calculated by fitting a nonlinear regression through percentage reduction in plasma LPA 18:1 (or 18:2) and log value of compound concentration using the software GraphPad Prism 8.
Y=Bottom+(Top−Bottom)/(1+10^((Log IC50−X)*Hill Slope))

Where [3] appears, read: assay buffer pH 8.5, read-out: IC50 (nM) pH 8.5.
The mark [4] stands for this setting: LPA 18:1, read-out: Human plasma ex vivo assay IC50 (18:1 LPA).
The mark [5] stands for this setting: LPA 18:2, read-out: Human plasma ex vivo assay IC50 (18:2 LPA).

Regarding `C[C@@H]1CN(CC(=O)N2CC(O)C2)CCN1c1cc(F)c2nc3c(c(N(C)c4nc(-c5ccc(F)cc5)c(C#N)s4)c2c1)CC[C@H]3O` (single isomer, unassigned) [Example E6-b], the IC50 is 14 nM in assay [1] (setting [3]), 387 nM in assay [2] (setting [4]) and 431 nM in assay [2] (setting [5]).
In the case of `C[C@H]1CN(CC(=O)N2CC(O)C2)CCN1c1cc(F)c2nc3c(c(N(C)c4nc(-c5ccc(F)cc5)c(C#N)s4)c2c1)CC[C@@H]3O` (single isomer, unassigned) [Example E7-a], the results for the half-maximal inhibitory concentration (IC50) in assay [1] (setting [3]), in assay [2] (setting [4]) and in assay [2] (setting [5]) were 15.2 nM, 369 nM and 351 nM, respectively.
On the same counts, the results for `C[C@H]1CN(c2cc(F)c3nc4c(c(N(C)c5nc(-c6ccc(F)cc6)c(C#N)s5)c3c2)CC[C@@H]4O)CCN1CC(=O)N1CC(O)C1` (single isomer, unassigned) [Example E8-a] are 22.5 nM, 280 nM and 324 nM.
On the same counts, the results for `C[C@@H]1CN(c2cc(F)c3nc4c(c(N(C)c5nc(-c6ccc(F)cc6)c(C#N)s5)c3c2)CC[C@@H]4O)CCN1CC(=O)N1CC(O)C1` (single isomer, unassigned) [Example E9-a] are 21.5 nM, 464 nM and 392 nM.
The like results for `C[C@@H]1CN(c2cc(F)c3nc4c(c(N(C)c5nc(-c6ccc(F)cc6)c(C#N)s5)c3c2)CC[C@H]4O)CCN1CC(=O)N1CC(O)C1` (single isomer, unassigned) [Example E9-b] were, in that order, 18.4 nM, 209 nM and 199 nM.
In the case of `CN(c1nc(-c2ccc(F)cc2)c(C#N)s1)c1c2c(nc3c(F)cc(N4CCN(CC(=O)N5CC(C)(O)C5)CC4)cc13)[C@@H](O)CC2` (single isomer, unassigned) [Example E10-a], the figures for the 50% inhibitory concentration (IC50) in assay [1] (setting [3]), in assay [2] (setting [4]) and in assay [2] (setting [5]) were 17.9 nM, 384 nM and 430 nM, respectively.
The like results for `CN(c1nc(-c2ccc(F)cc2)c(C#N)s1)c1c2c(nc3c(F)cc(N4CCN(CC(=O)N5CC(C)(O)C5)CC4)cc13)[C@H](O)CC2` (single isomer, unassigned) [Example E10-b] were, in that order, 14.4 nM, 263 nM and 261 nM.
Consider `C[C@@H]1CN(c2cc(F)c3nc4c(c(N(C)c5nc(-c6ccc(F)cc6)c(C#N)s5)c3c2)COC4)CCN1CC(=O)N1CC(O)C1` [Example A32], for which the IC50 in assay [1] (setting [3]) is 94.3 nM.
On the same count and under the same terms, for `C[C@H]1CN(c2cc(F)c3nc4c(c(N(C)c5nc(-c6ccc(F)cc6)c(C#N)s5)c3c2)COC4)CCN1CC(=O)N1CC(O)C1` [Example A33] the value was 44.6 nM; for `CN(c1nc(-c2ccc(F)cc2)c(C#N)s1)c1c2c(nc3c(F)cc(N4CC5(CN(CC(=O)N6CC(C)(O)C6)C5)C4)cc13)COC2` [Example A34], 446 nM.
On the same count and under the same terms, the value for `CN(c1nc(-c2ccc(F)cc2)c(C#N)s1)c1c2c(nc3c(F)cc(N4CCN(CC(=O)N5CC(C)(O)C5)CC4)cc13)COC2` [Example A35] was 66.8 nM.
Consider `CN(c1nc(-c2ccc(F)cc2)c(C#N)s1)c1c2c(nc3c(F)cc(N4CC5(CN(C(=O)[C@@H]6CCOC6)C5)C4)cc13)CCO2` [Example C11], for which the IC50 in assay [1] (assay buffer pH 7.5, read-out: IC50 (nM) pH 7.5) turned out to be 132 nM; in assay [1] (setting [3]), 61.9 nM.
With `CN(c1nc(-c2ccc(F)cc2)c(C#N)s1)c1c2c(nc3c(F)cc(N4CC5(CN(C(=O)C(C)(C)O)C5)C4)cc13)COC2` [Example C21], the IC50 in assay [1] (setting [3]) amounted to 49.1 nM.
On to `CN(c1nc(-c2ccc(F)cc2)c(C#N)s1)c1c2c(nc3c(F)cc(N4CC5(CN(C(=O)C6(O)CC6)C5)C4)cc13)COC2` [Example C22], for which, in assay [1] (setting [3]), the IC50 came to 73 nM.
For the compound `CN(c1nc(-c2ccc(F)cc2)c(C#N)s1)c1c2c(nc3c(F)cc(N4CCN(CC(=O)N5CC(O)C5)CC4)cc13)C(=O)CC2` [Example E2], in assay [1] (setting [3]), the IC50 is 3.46 nM.
On the same count and under the same terms, the value for `CN(c1nc(-c2ccc(F)cc2)c(C#N)s1)c1c2c(nc3c(F)cc(N4CC5(CN(C(=O)[C@H]6CCOC6)C5)C4)cc13)C(=O)CC2` [Example E3] was 30.7 nM.
The same measure, in the same setting: for `CN(c1nc(-c2ccc(F)cc2)c(C#N)s1)c1c2c(nc3c(F)cc(N4CC5(CN(C(=O)[C@@H]6CCOC6)C5)C4)cc13)C(=O)CC2` [Example E4] the value was 24.5 nM.
The same measure, in the same setting: the value for `CN(c1nc(-c2ccc(F)cc2)c(C#N)s1)c1c2c(nc3c(F)cc(N4CC5(CN(C(=O)C6CCOC6)C5)C4)cc13)C(O)CC2` (stereo not shown) [Example E5] was 21.8 nM.
For `CN(c1nc(-c2ccc(F)cc2)c(C#N)s1)c1c2c(nc3c(F)cc(N4CC5(CN(CC(=O)N6CCCC6)C5)C4)cc13)C(O)CC2` (stereo not shown) [Example E11], in assay [1] (setting [3]), the half-maximal inhibitory concentration (IC50) worked out at 35.7 nM.
Still for that read-out and setting: for `CN(c1nc(-c2ccc(F)cc2)c(C#N)s1)c1c2c(nc3c(F)cc(N4CC5(CN(CC(=O)N6CC[C@H](O)C6)C5)C4)cc13)C(O)CC2` (stereo partly shown) [Example E12] the value was 97.6 nM.
With `CN(c1nc(-c2ccc(F)cc2)c(C#N)s1)c1c2c(nc3c(F)cc(N4CC5(CN(C(=O)[C@@H]6CCOC6)C5)C4)cc13)C(O)CC2` (stereo partly shown) [Example E13], in assay [1] (setting [3]), the 50% inhibitory concentration (IC50) is 23.5 nM.
Regarding `CN(c1nc(-c2ccc(F)cc2)c(C#N)s1)c1c2c(nc3c(F)cc(N4CC5(CN(C(=O)C6(O)CCOC6)C5)C4)cc13)C(O)CC2` (stereo not shown) [Example E19], the IC50 in assay [1] (setting [3]) amounted to 20.4 nM.
Same read-out and setting: the value for `CN(c1nc(-c2ccc(F)cc2)c(C#N)s1)c1c2c(nc3c(F)cc(N4CC5(CN(C(=O)C6COCC6O)C5)C4)cc13)C(O)CC2` (stereo not shown) [Example E20] was 23.5 nM.
With `CN(c1nc(-c2ccc(F)cc2)c(C#N)s1)c1c2c(nc3c(F)cc(N4CCN(CC(=O)NO)CC4)cc13)CC2` [Example F1], in assay [1] (setting [3]), the IC50 worked out at 44.9 nM.
With `CN(c1nc(-c2ccc(F)cc2)c(C#N)s1)c1c2c(nc3c(F)cc(N4CCN(CC(=O)N5CC6(CC(O)C6)C5)CC4)cc13)CC2` [Example F2], in assay [1] (setting [3]), the 50% inhibitory concentration (IC50) is 65.2 nM.
Same read-out and setting: for `CN(c1nc(-c2ccc(F)cc2)c(C#N)s1)c1c2c(nc3c(F)cc(N4CCN(CC(=O)N5CC6(CCOCC6)C5)CC4)cc13)CC2` [Example F3] the value was 60.6 nM; for `CN(c1nc(-c2ccc(F)cc2)c(C#N)s1)c1c2c(nc3c(F)cc(N4CCN(CC(=O)N5CC6(CCS(=O)(=O)CC6)C5)CC4)cc13)CC2` [Example F4], 19.6 nM.
Regarding `CN(c1nc(-c2ccc(F)cc2)c(C#N)s1)c1c2c(nc3c(F)cc(N4CCN(CC(=O)N5CC6(CCC(O)CC6)C5)CC4)cc13)CC2` [Example F5], the IC50 in assay [1] (setting [3]) is 19.9 nM.
